{"source": "patent US20130123345A1", "about": "“METHOD OF TREATING A VIRAL INFECTION D[…] […] ADENOSINE RECEPTOR PATHWAY” (THE OHIO STATE UNIVERSITY, priority 2010, published 2013)", "key": {"influenza A/WSN/33": {"test_system": "influenza A/WSN/33", "test": "Lung homogenate virus titers", "format": "in vivo, mouse", "description": "(§1) The pharmacologic blockade of CD73 with APCP (5′-(α,β-methylene)diphosphate) reduces BALF adenosine levels and thereby ameliorates acute lung injury in influenza-infected mice. We investigated effects of daily gavage with APCP (20 mg/kg, in 200 μl saline) on body weight, arterial O2 saturation (SpO2; measured in conscious mice with the MouseOx pulse oximetry system) and survival in 2 groups of 10 individually-marked influenza-infected mice, and compared these animals to mock-infected and untreated influenza-infected mice. […] (FIG. 4C). In fact, 20% of APCP-treated mice survived infection, whereas all untreated mice died. Importantly, APCP gavage had no effect on lung homogenate virus titers at 2 d.p.i. (not shown).\n(§2) A1-AdoR activation is pro-inflammatory in influenza infection and pharmacologic blockade of A1-AdoR with the prototypical A1-AdoR antagonist DPCPX (8-Cyclopentyl-1,3-diproopylxanthine) ameliorates adenosine-induced acute lung injury in influenza-infected mice. Influenza-infected mice were treated with DPCPX (1 mg/kg/day), administered by implanted osmotic minipump (Alzet). The effects of this A1-AdoR antagonist on body weight, arterial O2 saturation (measured by pulse oximetry) and survival were investigated in 2 groups of 10 individually-marked influenza-infected mice. For some outcome measures, we also evaluated the effect of daily administration of the A2b-AdoR antagonist enprofylline (4 mg/kg I.P., in 100 μl 10% ethanol in saline; EMD Biosciences), to determine whether A2b-AdoR blockade also modulates influenza outcomes. […] 10% of DPCPX-treated mice survived infection. […] (not shown). […] (not shown)."}, "influenza-infected mice [1]": {"test_system": "influenza-infected mice", "test": "Influenza-induced loss of body weight in treated infected mice", "format": "in vivo, mouse", "description": "as §1, §2\n(§3) Mice were infected intranasally with 50 μl influenza A/WSN/33 under 3% isoflurane anesthesia. Mock-infected animals received 50 μl of virus diluent (PBS with 0.1% BSA). In some experiments, mice were individually marked and weighed daily."}, "influenza-infected mice [2]": {"test_system": "influenza-infected mice", "test": "Mortality / survival of treated influenza-infected mice", "format": "in vivo, mouse", "description": "as §1, §2, §3"}, "influenza-infected mice [3]": {"test_system": "influenza-infected mice", "test": "Arterial O2 saturation (SpO2) by MouseOx pulse oximetry, peripheral hypoxemia", "format": "in vivo, mouse", "description": "as §1, with “Importantly, APCP gavage had no effect on lung homogenate virus titers at 2 d.p.i. (not shown).” left out\nA1-AdoR activation is pro-inflammatory in influenza infection and pharmacologic blockade of A1-AdoR with the prototypical A1-AdoR antagonist DPCPX (8-Cyclopentyl-1,3-diproopylxanthine) ameliorates adenosine-induced acute lung injury in influenza-infected mice. […] The effects of this A1-AdoR antagonist on body weight, arterial O2 saturation (measured by pulse oximetry) and survival were investigated in 2 groups of 10 individually-marked influenza-infected mice. For some outcome measures, we also evaluated the effect of daily administration of the A2b-AdoR antagonist enprofylline (4 mg/kg I.P., in 100 μl 10% ethanol in saline; EMD Biosciences), to determine whether A2b-AdoR blockade also modulates influenza outcomes. […]"}, "[4]": {"test_system": "BALB/c mice infected with influenza A/WSN/33", "test": "Heart rate (bradycardia) by pulse oximetry in influenza-infected mice", "format": "in vivo", "conditions": "6 days infection, 10,000 PFU/mouse; systemic treatment"}, "influenza-infected mice [5]": {"test_system": "influenza-infected mice", "test": "Lung water content (wet:dry weight ratio)", "format": "in vivo, mouse", "conditions": "6 d.p.i.", "description": "as §2\nThe right lung was removed weighed, dried in an oven at 55° C. for 5 days, then reweighed. Wet-to-dry weight ratio provides an index of intrapulmonary fluid accumulation."}, "influenza-infected mice [6]": {"test_system": "influenza-infected mice", "test": "Total BAL cell counts (pulmonary inflammation)", "format": "in vivo, mouse", "conditions": "6 d.p.i.; 1 mg/kg/day by osmotic minipump", "description": "as §2\nFollowing removal of the left lung, the right lung was lavaged in situ with 0.5 ml of sterile saline. […] Numbers of viable alveolar macrophages, lymphocytes, and polymorphonuclear cells were calculated from total leukocytes (counted using a hemocytometer with 0.4% trypan blue exclusion to assess viability) and differential counts of Diff-Quik-stained cytocentrifuge preparations. […] BAL protein and LDH content were determined by standard colorimetric assays."}, "[7]": {"test_system": "influenza H1N1 virus (A/WSN/33) infected BALB/c mice", "test": "Alveolar fluid clearance in influenza-infected mice (compound added to fluid clearance instillate)", "format": "in vivo, mouse", "conditions": "2 d.p.i., 10 μM in fluid clearance instillate, 30-min ventilation period"}, "[8]": {"conditions": "1 mg/kg/day by implanted osmotic minipump"}}}
{"molecule": "5′-(α,β-methylene)diphosphate [APCP]", "values": [{"measurement": "lung homogenate virus titers", "setting": "influenza A/WSN/33; 2 d.p.i., daily gavage 20 mg/kg", "result": "no effect"}, {"measurement": "influenza-induced loss of body weight", "setting": "influenza-infected mice [1]; daily gavage 20 mg/kg in 200 μl saline", "result": "no significant effect"}, {"measurement": "treated mice that survived infection", "setting": "influenza-infected mice [2]; daily gavage 20 mg/kg, all untreated mice died", "result": 20, "unit": "%"}, {"measurement": "mortality (delay)", "setting": "influenza-infected mice [2]; daily gavage 20 mg/kg, vs untreated infected mice", "result": "significantly delayed mortality"}, {"measurement": "onset of peripheral hypoxemia (SpO2)", "setting": "influenza-infected mice [3]; daily gavage 20 mg/kg, conscious mice", "result": "significantly delayed"}]}
{"molecule": "CCCn1c(=O)c2[nH]c(C3CCCC3)nc2n(CCC)c1=O", "note": "[DPCPX, 8-cyclopentyl-1,3-dipropylxanthine]", "values": [{"measurement": "influenza-induced bradycardia (heart rate)", "setting": "[4]", "result": "reversed"}, {"measurement": "lung homogenate virus titers", "setting": "influenza A/WSN/33; 6 d.p.i., 1 mg/kg/day by osmotic minipump", "result": "Neither DPCPX nor enprofylline had any effect"}, {"measurement": "lung water content (wet:dry weight ratio)", "setting": "influenza-infected mice [5]; 1 mg/kg/day by osmotic minipump", "result": "significantly reduced"}, {"measurement": "influenza-induced weight loss", "setting": "influenza-infected mice [1]; [8]", "result": "neither DPCPX nor enprofylline had any significant effect"}, {"measurement": "mortality (delay)", "setting": "influenza-infected mice [2]; [8]", "result": "significantly delayed mortality"}, {"measurement": "treated mice that survived infection", "setting": "influenza-infected mice [2]; [8]", "result": 10, "unit": "%"}, {"measurement": "onset of peripheral hypoxemia", "setting": "influenza-infected mice [3]; [8]", "result": "significantly delayed"}, {"measurement": "total BAL cell counts", "setting": "influenza-infected mice [6]", "result": "significant reduction"}]}
{"molecule": "N#CC(=C(N)Sc1ccccc1N)C(C#N)=C(N)Sc1ccccc1N", "note": "[U0126, 1,4-diamino-2,3-dicyano-1,4-bis[2-aminophenylthio] butadiene]", "values": [{"measurement": "WSN virus-induced suppression of alveolar fluid clearance", "setting": "[7]", "result": "reversed"}]}
{"molecule": "CCCn1c(=O)[nH]c(=O)c2[nH]cnc21", "note": "[enprofylline]", "values": [{"measurement": "lung homogenate virus titers", "setting": "influenza A/WSN/33; 6 d.p.i., daily 4 mg/kg I.P.", "result": "Neither DPCPX nor enprofylline had any effect"}, {"measurement": "lung water content (wet:dry weight ratio)", "setting": "influenza-infected mice [5]; daily 4 mg/kg I.P.", "result": "no such effect"}, {"measurement": "influenza-induced weight loss", "setting": "influenza-infected mice [1]; daily 4 mg/kg I.P. in 100 μl 10% ethanol in saline", "result": "neither DPCPX nor enprofylline had any significant effect"}]}
{"molecule": "CNCCC(Oc1ccc(C(F)(F)F)cc1)c1ccccc1", "note": "(stereo not drawn) [fluoxetine]", "values": [{"measurement": "WSN virus-induced suppression of alveolar fluid clearance", "setting": "[7]", "result": "reversed"}]}
